Assay results as given in patent publication US20240358885A1, “COMPOSITIONS FOR EMBOLIZATION” (IBERHOSPITEX, S.A., priority 2021, published 2024).

Legend:
[1] = Precipitation behavior on slow injection into PBS; assay type: physicochemical; set-up: key: cohesive (2); cohesive with loss of some material (1); uncontrollable injection or not cohesive (0); details: score; 100 ul injected slowly into PBS, 27 G needle
Experimental: (§1) The resulting solutions were assayed to assess the precipitation behavior and the radiopacity loss.
Embolization formulations were slowly injected into phosphate buffered saline (PBS) using a syringe and a fine needle (27 G). Precipitates of embolizing material were obtained after slow injection (1 minute approximately) of 100 ul of embolization formulations. The precipitation behavior was observed and scored as cohesive (2), cohesive with loss of some material (1) and uncontrollable injection or not cohesive (0).

[2] = Radiopacity loss and homogeneity of precipitates incubated in PBS at 37° C.; assay type: physicochemical; set-up: key to Homogeneous radiopacity (0-1): non-homegeneous (score=0); homogeneous (score=1); details: for Radiopacity loss (0-3) / Homogeneous radiopacity (0-1): score; for Radiopacity loss (0-3): 30 days in PBS at 37° C. vs time=0, 150 mg equivalent iodine/ml with 6% ethylene vinyl alcohol copolymer in DMSO; for Homogeneous radiopacity (0-1): C-arm X-ray; for radiopacity loss in PBS over time (in words): PBS at 37° C., 30 min and 30 days
Experimental: as §1
Radiopacity loss of precipitates was determined by comparing the radiopacity of freshly prepared samples (time=0) and samples incubated for 30 days in phosphate buffered saline (PBS) at 37° C. PBS was changed daily when possible. Radiopacity was determined using a C-arm X-ray equipment (OEC Fluorostar 7900COMPACT2, General Electric). Radiopacity loss was scored as radiostable (score =0) when the radiopacity loss was below 5%, slightly radiolabile when the radiopacity loss was comprised between 5 to 25% radiopacity loss (score=1), moderately radiolabile when the radiopacity loss was comprised between 26 to 69% radiopacity loss (score=2) and highly radiolabile when the radiopacity loss was comprised between 70to 100% radiopacity loss (score=3). Homogeneity of the radiopacity was also scored as non-homegeneous (score=0) or homogeneous (score=1).
The procedure was as defined above. It can be observed that formulations with high logP values, i.e. above 7.0, are radiostable, while formulations with low logP values, i.e. below 2.0 (logP (LFE13)=−1.6 and logP (LFE23) at pH 7.4=−0.5) lose their radiopacity within minutes.

[3] = tested on: renal artery; experiment: In vivo embolization of porcine kidney; details: 0.6 ml injected into the renal artery, 35 kg swine
Experimental: In this example, a 35 kg swine was prepared for blood vessel embolization using the embolic composition LFE09 prepared according to Example 2. Embolization of the left kidney proceeded by placement of a microcatheter into the kidney. The catheter was advanced into the renal artery, flushed with contrast agent to identify the location and then flushed with DMSO, followed by 0.6 ml of the LFE09 composition described above, followed yet by more DMSO within the catheter. LFE09 composition was quickly injected into the renal artery. […] After 14 days, the right kidney was embolized with 0.6 ml of the same LFE09 formulation and the animal was euthanized.

[4] = Radiopacity loss and homogeneity of precipitates incubated in PBS at 37° C.; assay type: physicochemical; details: 30 min of incubation in PBS at 37° C.
[5] = 30 days of incubation in PBS at 37° C.

Row | Structure (SMILES) | Precipitation (0-2) [1] | Radiopacity loss (0-3) [2] | Homogeneous radiopacity (0-1) [2] | % of radiopacity compared to time zero [2, 5] [%] | radiopacity loss in PBS over time (in words) [2] | % of radiopacity compared to time zero ([2]; t zero) [%] | embolization of the kidney (in words) [3] | % of radiopacity compared to time zero [4] [%]
1 | CCCCCCOc1c(I)cc(I)cc1I [LFE01] | 2 | 1 (slightly radiolabile when the radiopacity loss was comprised between 5 to 25% radiopacity loss (score=1)) | 0 |  |  |  |  | 
2 | CCOC(=O)COc1c(I)cc(I)cc1I [LFE02, ethyl 2,4,6-triiodophenoxyacetate] | 1 | 2 (moderately radiolabile when the radiopacity loss was comprised between 26 to 69% radiopacity loss (score=2)) | 0 |  |  |  |  | 
3 | CCCOC(=O)Cn1cc(I)c(=O)c(I)c1 [LFE03] | 2 | 3 (highly radiolabile when the radiopacity loss was comprised between 70to 100% radiopacity loss (score=3)) | 1 | 14.5 | significant radiopacity loss | 100.0 |  | 
4 | CCCCCCOC(=O)Cn1cc(I)c(=O)c(I)c1 [LFE04] | 2 | 2 (moderately radiolabile when the radiopacity loss was comprised between 26 to 69% radiopacity loss (score=2)) | 1 |  |  |  |  | 
5 | COCCOCCOCCOc1c(I)cc(I)cc1I [LFE05] | 2 | 3 (highly radiolabile when the radiopacity loss was comprised between 70to 100% radiopacity loss (score=3)) | 0 |  |  |  |  | 
6 | OCCOCCOCCOc1c(I)cc(I)cc1I [LFE06] | 2 | 2 (moderately radiolabile when the radiopacity loss was comprised between 26 to 69% radiopacity loss (score=2)) | 1 |  |  |  |  | 
7 | COCCOCCOCCOCCOCCOc1c(I)cc(I)cc1I [LFE07] | 2 | 2 (moderately radiolabile when the radiopacity loss was comprised between 26 to 69% radiopacity loss (score=2)) | 1 |  |  |  |  | 
8 | COCCOCCOCCOCCOCCOCCOCCOCCOCCOCCOCCOCCOc1c(I)cc(I)cc1I [LFE08] | 0 | 2 (moderately radiolabile when the radiopacity loss was comprised between 26 to 69% radiopacity loss (score=2)) | 1 | 29.3 | significant radiopacity loss | 100.0 |  | 
9 | COCCOCCOCCOC(=O)COc1c(I)cc(I)cc1I [LFE09] | 2 | 3 (highly radiolabile when the radiopacity loss was comprised between 70to 100% radiopacity loss (score=3)) | 1 | 64.7 | significant radiopacity loss | 100.0 | the upper pole of the kidney was blocked | 
10 | O=C(COc1c(I)cc(I)cc1I)OCCOCCOCCO [LFE10] | 2 | 3 (highly radiolabile when the radiopacity loss was comprised between 70to 100% radiopacity loss (score=3)) | 1 |  |  |  |  | 
11 | CC(=O)OCCOCCOCCOc1c(I)cc(I)cc1I [LFE12] | 2 | 2 (moderately radiolabile when the radiopacity loss was comprised between 26 to 69% radiopacity loss (score=2)) | 0 |  |  |  |  | 
12 | CN(C(=O)CO)c1c(I)c(C(=O)NCC(O)CO)c(I)c(C(=O)NCC(O)CO)c1I (centres unmarked) [LFE13, iomeprol, reference compound] | 0 | 3 (highly radiolabile when the radiopacity loss was comprised between 70to 100% radiopacity loss (score=3)) | 1 | 11.9 |  | 100.0 |  | 29.0
13 | CC(=O)OCC(=O)N(C)c1c(I)c(C(=O)NCC(COC(C)=O)OC(C)=O)c(I)c(C(=O)NCC(COC(C)=O)OC(C)=O)c1I (centres unmarked) [LFE14] | 2 | 3 (highly radiolabile when the radiopacity loss was comprised between 70to 100% radiopacity loss (score=3)) | 1 |  |  |  |  | 
14 | O=C(OCCOCCOCCOCCOCCO)c1cc(I)cc(I)c1I [LFE17] | 2 | 2 (moderately radiolabile when the radiopacity loss was comprised between 26 to 69% radiopacity loss (score=2)) | 1 |  |  |  |  | 
15 | COCCOCCOCCOCCOCCOCc1cc(I)cc(I)c1I [LFE19] | 2 | 1 (slightly radiolabile when the radiopacity loss was comprised between 5 to 25% radiopacity loss (score=1)) | 1 |  |  |  |  | 
16 | COCCOCCOCCOCc1cc(I)cc(I)c1I [LFE20] | 2 | 1 (slightly radiolabile when the radiopacity loss was comprised between 5 to 25% radiopacity loss (score=1)) | 0 |  |  |  |  | 
17 | CCCCCCOC(=O)c1c(I)c(NC(C)=O)c(I)c(NC(C)=O)c1I [LFE21] | 2 | 1 (slightly radiolabile when the radiopacity loss was comprised between 5 to 25% radiopacity loss (score=1)) | 1 | 91.4 | significant radiopacity loss | 100.0 |  | 
18 | CCCOC(=O)c1c(I)c(NC(C)=O)c(I)c(NC(C)=O)c1I [LFE22] | 2 | 1 (slightly radiolabile when the radiopacity loss was comprised between 5 to 25% radiopacity loss (score=1)) | 1 |  |  |  |  | 
19 | CC(=O)Nc1c(I)c(NC(C)=O)c(I)c(C(=O)O)c1I [LFE23, Diatrizoic acid, reference compound] | 1 | 3 (highly radiolabile when the radiopacity loss was comprised between 70to 100% radiopacity loss (score=3)) | 1 | 19.0 |  | 100.0 |  | 35.6
20 | CCCCC(CC)COc1c(I)cc(I)cc1I (centres unmarked) [LFE24] | 1 | 0 (radiostable (score =0) when the radiopacity loss was below 5%) | 0 | 101.9 | complete radiostability | 100.0 |  | 101.3
